According to US20110207729A1, “BICYCLIC ACYLGUANIDINE DERIVATIVE” (ASTELLAS PHARMA INC., priority 2007, published 2011):
pKi: −log10 of the molar value. Counter-ions that a name gives are not always drawn.

Target: T1, human 5-HT5A receptor (Homo sapiens, UniProt P47898)
T1 construct: expressed in transfected cells; membrane preparation
Assay: Test on a human 5-HT5A receptor binding inhibition ([3H]5-CT)
Details: membrane from HEK293 cells expressing human 5-HT5A receptor; Ki calculated from IC50 and Kd 4.95 nM
Method: Acquisition of HEK293 cells for forced expressions of a human 5-HT5A receptor
The ORF (open reading frame; protein coding region) of a human 5-HT5A receptor (Genbank AF498985) was cloned from a human hippocampus cDNA library, and then inserted into a pCR2.1 vector (Invitrogen), and Escherichia coli containing the plasmid was cultured in a large amount. Next, the full-length cDNA sequence of the human 5-HT5A receptor was analyzed, and recombined into a pcDNA3.1 vector (Invitrogen) as an expression vector and cultured in a large amount. HEK293 established cells (ATCC) derived from the human fetal kidney were seeded, the expression plasmid (1 μg) obtained above were added thereto with LIPOFECTAMINE 2000 (Invitrogen; 2 μl), the gene was transfected into HEK293 cells, and the expression cells were screened with a drug-resistant marker, Geneticin (G418 sulfate 500 μg/ml; Kanto Chemical Co., Inc.). Thus prepared recombinant cells which express the gene were cultured in a medium containing D-MEM (Dulbecco's modified eagle medium, Sigma), 10% FCS (Fetal calf serum: fetal bovine serum), 1% Pc./Sm (Penicillin/Streptomycin, Invitrogen), and 500 μg/ml G418 for 3 days. These experimental operations follow an manual for gene operation experiment and an instruction appended in a reagent, and the like, such as a known method (Sambrook, J. et al, Molecular Cloning—A Laboratory Manual”, Cold Spring Harabor laboratory, NY, 1989).
(1) Preparation of a Membrane from HEK293 Cells for Forced Expressions of a Human 5-HT5A Receptor
HEK293 cells for forced expressions of a human 5-HT5A receptor were cultured in a F500 plate, and scraped with a scraper. After centrifugation, a precipitate was collected, and an incubation buffer (50 mM Tris (HCl) (pH 7.4), 10 mM MgSO4, and 0.5 mM EDTA (ethylenediamine tetraacetic acid)) were added thereto. After homogenization, it was further centrifuged, and the precipitate was added with the incubation buffer, followed by thoroughly suspending. This operation was repeated, and a protein concentration was measured, thereby completing the preparation of a membrane.
(2) Test on a Human 5-HT5A Receptor Binding Inhibition
A solution of a compound to be tested and 100 μM 5-CT (5-carboxamidetriptamine) in DMSO was added to a 96-well plate at 2 μl/well, and suspended in an incubation buffer, and a membrane from HEK293 cells for forced expressions of a human 5-HT5A receptor prepared at 200 μg/ml was added at 100 μl/well. After incubation at room temperature for 15 minutes, a [^3H]5-CT solution (2 nM [^3H]5-CT, incubation buffer) was added thereto at 100 μl/well.
Separately, 100 μl of the solution was distributed into a liquid scintillation vial, and 2 ml of Aquasol II (registered trademark) was added thereto, followed by stirring. Then, a radioactivity was measured by a liquid scintillation counter. It was incubated at 37° C. for 60 minutes. The reaction mixture was sucked into 96-well GF/C filter plate that had been pre-treated with 0.2% polyethyleneimine, and washed six times with an ice-cooled, 50 mM Tris (pH 7.5) buffer. The GF/C filter plate was dried.
Microscint TMPS (registered trademark) was added thereto at 40 μl/well. A radioactivity remaining on the GF/C filter plate was measured by a top counter.
The [^3H]5-CT binding inhibiting activity by the compound to be tested in each experiment was determined as an IC50 value with a radioactivity upon addition of DMSO alone being 0% inhibition, and a radioactivity upon addition of 1 μM 5-CT being 100% inhibition. Separately, a Ki value was calculated from the Kd value of the [^3H]5-CT determined from Scatchard analysis, by the following equation.
Ki=IC50(1+Concentration of ligands added/Kd(4.95 nM))

T1 sequence (P47898 whole entry): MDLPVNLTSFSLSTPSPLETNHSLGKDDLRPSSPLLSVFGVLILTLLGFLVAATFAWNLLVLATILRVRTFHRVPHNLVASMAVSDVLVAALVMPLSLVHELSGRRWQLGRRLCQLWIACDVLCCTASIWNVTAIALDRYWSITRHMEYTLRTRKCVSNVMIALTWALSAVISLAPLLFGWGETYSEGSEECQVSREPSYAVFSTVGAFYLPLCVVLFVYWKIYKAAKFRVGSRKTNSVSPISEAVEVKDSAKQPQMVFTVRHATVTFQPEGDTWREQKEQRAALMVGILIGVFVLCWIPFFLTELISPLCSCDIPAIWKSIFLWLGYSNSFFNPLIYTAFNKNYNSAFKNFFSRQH

| Compound | pKi |
| --- | --- |
| COc1ccccc1C1=CC(C)(C)Oc2ccc(C(=O)N=C(N)N)cc21 [Example 1-01, N-(diaminomethylene)-4-(2-methoxyphenyl)-2,2-dimethyl-2H-chromene-6-carboxamide hydrochloride] | 6.52 to 7.52 |
| COCCN/C(N)=N/C(=O)c1ccc2c(c1)C(c1c(F)cccc1F)=CCO2 [Example 1-03, N-{1-amino[(2-methoxyethyl)amino]methylene}-4-(2,6-difluorophenyl)-2H-chromene-6-carboxamide hydrochloride] | 7.52 to 8.52 |
| CC1(C)C=C(c2ccccc2)c2cc(C(=O)N=C(N)N)ccc2O1 [Example 1-04] | 6.52 to 7.52 |
| NC(N)=NC(=O)c1ccc2c(c1)C(c1ccccc1)=C(F)CO2 [Example 1-14] | 9.01 |
| NC(N)=NC(=O)c1ccc2c(c1)C(c1ccccc1C(F)(F)F)=CCO2 [Example 1-15] | 7.52 to 8.52 |
| N#Cc1ccccc1C1=CCOc2ccc(C(=O)N=C(N)N)cc21 [Example 1-21] | 7.52 to 8.52 |
| NC(N)=NC(=O)c1ccc2c(c1)C(c1ccccc1O)=CCO2 [Example 1-22] | 8.52 to 9.52 |
| NC(N)=NC(=O)c1ccc2c(c1)C(c1cc(F)cc(F)c1)=CCO2 [Example 1-46] | 7.52 to 8.52 |
| N#Cc1cc(F)ccc1C1=CCOc2ccc(C(=O)N=C(N)N)cc21 [Example 1-48] | 7.52 to 8.52 |
| N#Cc1cc(C2=CCOc3ccc(C(=O)N=C(N)N)cc32)ccc1F [Example 1-49] | 6.52 to 7.52 |
| COc1ccc(F)cc1C1=CCOc2ccc(C(=O)N=C(N)N)cc21 [Example 1-50] | 7.52 to 8.52 |
| NC(N)=NC(=O)c1ccc2c(c1)C(c1ccc(Cl)cc1Cl)=CCO2 [Example 1-51] | 8.52 to 9.52 |
| NC(N)=NC(=O)c1ccc2c(c1)C(c1cccc(C(F)(F)F)c1)=CCO2 [Example 1-52] | 7.52 to 8.52 |
| NC(N)=NC(=O)c1ccc2c(c1)C(c1cc(F)c(F)cc1F)=CCO2 [Example 1-53] | 7.52 to 8.52 |
| NC(N)=NC(=O)c1ccc2c(c1)C(c1ccc(Cl)cc1F)=CCO2 [Example 1-54] | 8.52 to 9.52 |
| NC(N)=NC(=O)c1ccc2c(c1)C(c1ccc(F)cc1Cl)=CCO2 [Example 1-55] | 8.52 to 9.52 |
| NC(N)=NC(=O)c1ccc2c(c1)C(c1cc(C(F)(F)F)ccc1F)=CCO2 [Example 1-65] | 7.52 to 8.52 |

| Compound | pKi |
| --- | --- |
| Cn1cc(C2=CCOc3ccc(C(=O)N=C(N)N)cc32)cn1 [Example 1-66] | 6.52 to 7.52 |
| CC1=C(c2c(F)cc(F)cc2F)c2cc(C(=O)N=C(N)N)ccc2OC1 [Example 1-67] | 8.52 to 9.52 |
| CC1C=C(c2c(F)cc(F)cc2F)c2cc(C(=O)N=C(N)N)ccc2O1 (stereo not shown) [Example 1-71] | 8.52 to 9.52 |
| CC1C=C(c2ccc(C#N)cc2)c2cc(C(=O)N=C(N)N)ccc2O1 (stereo not shown) [Example 1-72] | 7.52 to 8.52 |
| N/C(=N\C(=O)c1ccc2c(c1)C(c1c(F)cccc1F)=CCO2)NCC1CC1 [Example 1-76] | 7.52 to 8.52 |
| COc1cc(F)c(F)cc1C1=CCOc2ccc(C(=O)N=C(N)N)cc21 [Example 1-79] | 7.52 to 8.52 |
| NC(N)=NC(=O)c1ccc2c(c1)C(c1ccc(F)c(Cl)c1)=CCO2 [Example 1-80] | 7.52 to 8.52 |
| NC(N)=NC(=O)c1ccc2c(c1)C(c1cccc(Cl)c1F)=CCO2 [Example 1-81] | 8.52 to 9.52 |
| Cc1ccc(Cl)c(C2=CCOc3ccc(C(=O)N=C(N)N)cc32)c1F [Example 1-82] | 8.52 to 9.52 |
| NC(N)=NC(=O)c1ccc2c(c1)C(c1ccc(C(F)(F)F)cc1C(F)(F)F)=CCO2 [Example 1-83] | 6.52 to 7.52 |
| NC(N)=NC(=O)c1cc(F)c2c(c1)C(c1c(F)cc(F)cc1F)=CCO2 [Example 1-85] | 7.52 to 8.52 |
| COc1ccccc1C1=CCOc2c(F)cc(C(=O)N=C(N)N)cc21 [Example 1-86] | 7.52 to 8.52 |
| N#Cc1ccc(C2=CCOc3c(F)cc(C(=O)N=C(N)N)cc32)cc1 [Example 1-87] | 6.52 to 7.52 |
| Cc1ccc(C2=CCOc3ccc(C(=O)N=C(N)N)cc32)c(Cl)c1 [Example 1-91] | 8.52 to 9.52 |
| Cc1cc(Cl)ccc1C1=CCOc2ccc(C(=O)N=C(N)N)cc21 [Example 1-92] | 8.52 to 9.52 |
| NC(N)=NC(=O)c1ccc2c(c1)C(c1c(F)cccc1Cl)=CCO2 [Example 1-96] | 8.52 to 9.52 |
| NC(N)=NC(=O)c1ccc2c(c1)C(c1cccc(F)c1Cl)=CCO2 [Example 1-102] | 8.52 to 9.52 |

The remaining lines, values ahead:

| pKi | Compound |
| --- | --- |
| 8.52 to 9.52 | NC(N)=NC(=O)c1ccc2c(c1)C(c1cc(F)ccc1Cl)=CCO2 [Example 1-103] |
| 6.52 to 7.52 | NC(N)=NC(=O)c1ccc2oc(=O)cc(-c3c(F)cc(F)cc3F)c2c1 [Example 1-104] |
| 7.52 to 8.52 | CC1(C)C=C(c2ccc(F)cc2F)c2cc(C(=O)N=C(N)N)ccc2O1 [Example 1-105] |
| 7.52 to 8.52 | CC1(C)C=C(c2c(F)cccc2F)c2cc(C(=O)N=C(N)N)ccc2O1 [Example 1-109] |
| 6.52 to 7.52 | CC1(C)C=C(c2ccc(F)cc2)c2cc(C(=O)N=C(N)N)ccc2O1 [Example 1-110] |
| 8.52 to 9.52 | COc1cc2c(cc1C(=O)N=C(N)N)C(c1c(F)cc(F)cc1F)=CCO2 [Example 1-118] |
| 6.52 to 7.52 | CC1(C)C=C(c2ccc(F)c(F)c2F)c2cc(C(=O)N=C(N)N)ccc2O1 [Example 1-119] |
| 6.52 to 7.52 | CC1(C)C=C(c2cc(F)c(F)cc2F)c2cc(C(=O)N=C(N)N)ccc2O1 [Example 1-120] |
| 7.52 to 8.52 | NC(N)=NC(=O)c1ccc2c(c1)C(c1c(F)cc(F)cc1F)=CC1(CCCC1)O2 [Example 1-121] |
| 7.52 to 8.52 | CC1C=C(c2c(F)cccc2F)c2cc(C(=O)N=C(N)N)ccc2O1 (stereo not shown) [Example 1-126] |
| 6.52 to 7.52 | CC1C=C(c2cccnc2Cl)c2cc(C(=O)N=C(N)N)ccc2O1 (stereo not shown) [Example 1-127] |
| 6.52 to 7.52 | CC1C=C(c2cccnc2)c2cc(C(=O)N=C(N)N)ccc2O1 (stereo not shown) [Example 1-128] |
| 6.52 to 7.52 | CC1C=C(c2ccncc2)c2cc(C(=O)N=C(N)N)ccc2O1 (stereo not shown) [Example 1-133] |
| 6.52 to 7.52 | CC1C=C(c2cccnc2F)c2cc(C(=O)N=C(N)N)ccc2O1 (stereo not shown) [Example 1-134] |
| 6.52 to 7.52 | CC1C=C(c2ccc(F)c(F)c2)c2cc(C(=O)N=C(N)N)ccc2O1 (stereo not shown) [Example 1-146] |
| 6.52 to 7.52 | CC1C=C(c2ccc(Cl)nc2Cl)c2cc(C(=O)N=C(N)N)ccc2O1 (stereo not shown) [Example 1-147] |
| 6.52 to 7.52 | COc1cccc(C#N)c1C1=CC(C)Oc2ccc(C(=O)N=C(N)N)cc21 (stereo not shown) [Example 1-165] |
| 7.52 to 8.52 | CC1C=C(c2cccs2)c2cc(C(=O)N=C(N)N)ccc2O1 (stereo not shown) [Example 1-166] |
| 7.52 to 8.52 | CC1C=C(c2ccsc2)c2cc(C(=O)N=C(N)N)ccc2O1 (stereo not shown) [Example 1-167] |
| 7.52 to 8.52 | NC(N)=NC(=O)c1ccc2c(c1)C(c1ccoc1)=CCC2 [Example 2-01, N-(diaminomethylene)-8-(3-furyl)-5,6-dihydronaphthalene-2-carboxamide methane sulfonate] |
| 7.52 to 8.52 | COc1cccc(C2=CCCc3ccc(C(=O)N=C(N)N)cc32)c1 [Example 2-05] |
| 6.52 to 7.52 | NC(N)=NC(=O)c1ccc2c(c1)C(c1ccc(Oc3ccccc3)cc1)=CCC2 [Example 2-07] |
| 7.52 to 8.52 | NC(N)=NC(=O)c1ccc2c(c1)C(c1cccc(F)c1)=CCC2 [Example 2-08] |
| 8.52 to 9.52 | NC(N)=NC(=O)c1ccc2c(c1)C(c1ccccc1F)=CCC2 [Example 2-09] |
| 7.52 to 8.52 | NC(N)=NC(=O)c1ccc2c(c1)C(c1cccc(Cl)c1)=CCC2 [Example 2-10] |
| 8.52 to 9.52 | NC(N)=NC(=O)c1ccc2c(c1)C(c1ccsc1)=CCC2 [Example 2-19] |
| 7.52 to 8.52 | NC(N)=NC(=O)c1ccc2c(c1)C(c1ccco1)=CCC2 [Example 2-20] |
| 8.52 to 9.52 | NC(N)=NC(=O)c1ccc2c(c1)C(c1cccs1)=CCC2 [Example 2-21] |
| 8.52 to 9.52 | N#Cc1ccc(C2=CCCc3ccc(C(=O)N=C(N)N)cc32)cc1 [Example 2-25] |
| 6.52 to 7.52 | NC(=O)c1cccc(C2=CCCc3ccc(C(=O)N=C(N)N)cc32)c1 [Example 2-30] |
